From publication PMC11350846, “Synthesis of Second-Generation Analogs of Temporin-SHa Peptide Having Broad-Spectrum Antibacterial and Anticancer Effects” (Antibiotics, 2024)
Where a SMILES comes first, the peptide text is derived from it. [ ]: non-standard residue; d: D form.

Tests used:
[1] = test system: human cancer and normal/non-cancerous cells; assay type: cell-based; conditions: cancer or normal cells, except breast cancer MCF-7 cells; read-out: IC50, cancer or normal cell proliferation
Protocol: (§1) The antiproliferative activity of the peptides was evaluated, as previously described using human cancer cell lines (A549 (lung), A2780 (ovary), HepG-2 (liver), MCF-7 (breast), MiaPaCa-2 (pancreas), MNT-1 (skin), and PC-3 (prostate)) and normal human lung fibroblasts (IMR-90) or epithelial cells (BEAS-2B). The cells were cultured in DMEM supplemented with 10% FBS, 1% L-glutamine, and 1% antibiotics at 37 °C in a 5% CO2 incubator. For the antiproliferative assay, cells were seeded in 96-well plates at approximately 3000 cells/well. Twenty-four hours later, cells were treated with increasing concentrations of peptides (1:2 serial dilution from 100 µM to 0 µM) for 48 h. After treatment, the number of viable cells was determined using a resazurin-based assay, and the fluorescence intensity was measured with a microplate reader (Ex 530 nm/Em 590 nm). The IC50 values of the peptides (i.e., the concentrations causing 50% inhibition of cell proliferation) were determined using GraphPad® Prism 7 software. The experiments were performed in triplicate (n = 3). The cytotoxicity of the peptides was also evaluated using confluent/no-dividing cells, as previously described. Briefly, human cells were seeded onto 96-well plates at 20,000 cells/well. When they reached 80–90% confluence (after 24–48 h), cells were treated with escalating concentrations of peptides. After 48h incubation, cell viability was measured using a resazurin assay and CC50 (i.e., the concentrations causing 50% inhibition of cell viability) and determined using GraphPad® Prism 7 software. The experiments were performed in triplicate (n = 3).

Breast Cancer (MCF-7) = assay type: cell-based, human; conditions: MCF-7, 48 h; read-out: 50% inhibitory concentrations (IC50), cell proliferation
Protocol: as §1

Prostate Cancer (PC-3) = assay type: cell-based, human; conditions: PC-3, 48 h; read-out: 50% inhibitory concentrations (IC50), cell proliferation
Protocol: as §1

[2] = test system: Pancreatic Cancer (MiaPaCa-2); assay type: cell-based, human; conditions: MiaPaCa-2, 48 h; read-out: 50% inhibitory concentrations (IC50), cell proliferation
Protocol: as §1

Lung Cancer (A549) = assay type: cell-based, human; conditions: A549, 48 h; read-out: 50% inhibitory concentrations (IC50), cell proliferation
Protocol: as §1

Liver Cancer (HepG-2) = assay type: cell-based, human; conditions: HepG-2, 48 h; read-out: 50% inhibitory concentrations (IC50), cell proliferation
Protocol: as §1

[3] = test system: Normal Lung Epithelium (BEAS-2B); assay type: cell-based, human; conditions: BEAS-2B normal cells, 48 h; read-out: 50% inhibitory concentrations (IC50), cell proliferation
Protocol: as §1

[4] = test system: Normal Lung Fibroblast (IMR-90); assay type: cell-based, human; conditions: IMR-90 normal cells, 48 h; read-out: 50% inhibitory concentrations (IC50), cell proliferation
Protocol: as §1

Ovarian Cancer (A2780) = assay type: cell-based, human; conditions: A2780, 48 h; read-out: 50% inhibitory concentrations (IC50), cell proliferation
Protocol: as §1

human cancer cells = assay type: cell-based; conditions: mean of all human cancer cells tested; read-out: IC50, mean over cancer cells
Protocol: as §1

Row | Compound | IC50 [1] [µM] | IC50 (Breast Cancer (MCF-7)) [µM] | IC50 (Prostate Cancer (PC-3)) [µM] | IC50 [2] [µM] | IC50 (Lung Cancer (A549)) [µM] | IC50 (Liver Cancer (HepG-2)) [µM] | IC50 [3] [µM] | IC50 [4] [µM] | IC50 (Ovarian Cancer (A2780)) [µM] | IC50 (human cancer cells) [µM]
1 | CC[C@H](C)[C@H](NC(=O)CNC(=O)[C@H](CO)NC(=O)[C@H](CC(C)C)NC(=O)[C@@H](N)Cc1ccccc1)C(=O)N[C@H](C(=O)NCC(=O)N[C@@H](CCSC)C(=O)N[C@@H](CC(C)C)C(=O)NCC(=O)N[C@@H](CCCCN)C(=O)N[C@@H](CC(C)C)C(=O)N[C@@H](Cc1ccccc1)C(N)=O)C(C)C [Temporin-SHa (1), H-Phe^1-Leu^2-Ser^3-Gly^4-IIe^5-Val^6-Gly^7-Met^8-Leu^9-Gly^10-Lys^11-Leu^12-Phe^13-NH2, reference compound] (H-FLSGIVGMLGKLF-NH2) | > 100 | 26.9 ± 8.2 | > 100 | > 100 | > 100 | > 100 | > 100 | > 100 | > 100 | 
2 | CC[C@H](C)[C@H](NC(=O)CNC(=O)[C@H](CO)NC(=O)[C@H](CC(C)C)NC(=O)[C@@H](N)Cc1ccccc1)C(=O)N[C@H](C(=O)NCC(=O)N[C@@H](CCSC)C(=O)N[C@@H](CC(C)C)C(=O)N[C@H](C)C(=O)N[C@@H](CCCCN)C(=O)N[C@@H](CC(C)C)C(=O)N[C@@H](Cc1ccccc1)C(N)=O)C(C)C [[G10a]-SHa (2), H-Phe^1-Leu^2-Ser^3-Gly^4-IIe^5-Val^6-Gly^7-Met^8-Leu^9-D-Ala^10-Lys^11-Leu^12-Phe^13-NH2] (H-FLSGIVGML[dA]KLF-NH2) |  | 18.3 ± 8 | 13.1 ± 2.4 | 23.1 ± 4.3 | 12.1 ± 0.4 | 37.2 ± 5 | 22.6 ± 0.7 | 33 ± 3.1 | 13.4 ± 0.7 | 18.7 ± 9
